This note sets out measurements from patent US20080188761A1, “ECG-BASED IDENTIFICATION OF IMPAIRED IKR KINETICS” (priority 2006, published 2008).

Where two headings read alike, the source gives them in different places.

For the data set, the system named is healthy individuals. As to conditions: for RR: healthy subjects, lead II, mean ± SD. The protocol: Our investigation is based on the analysis of 12-lead digital Holter recordings in: 49 LQT1 carriers, 25 LQT2 carriers, 37 healthy individuals off drugs and on 160 mg of sotalol, and 21 of them also on 320 mg of sotalol. The Holter recordings were used to investigate repolarization parameters and their heart rate dependency.
The study populations consisted of: 49 LQT1 carriers, 25 LQT2 carriers, and 37 healthy individuals who participated in a study focused on effect of sotalol on ECG parameters of repolarization. The group of LQTS patients included individuals with genetically identified KCNH2 (HERG) and KCNQ1 mutations, we investigated these two types of mutations since they are associated with two different ion-kinetics dysfunctions of potassium currents: the KCNH2 have been linked to a reduction of the rapidly activating repolarizing potassium current (IKr) and the KCNQ1 to the slowly activating ion current IKs. We analyzed the patients in whom digital 24-hour Holter recordings were available in order to be able to investigate heart rate dependency of their repolarization morphology. The protocol of this study included 3 days of Holter recordings: at baseline, on single 160 mg dose of sotalol and a 320 mg dose of sotalol.
All the Holter ECGs were recorded using the same type of equipment: 24-hour Holter recorder H12 (H-12 recorder, Mortara Instrument, Milwaukee, Wis.) providing digital ECG signal at a sampling frequency of 180 Hz and with 12 bit amplitude resolution (6.25 pv). In this recording, 8 original leads are recorded and the remaining 4 leads (augmented limb leads aVR, aVL, aVF and lead III) are computed. Beat classification was performed using the HScribe scanning software (HScribe, Mortara Instrument, Milwaukee, Wi.) and manually reviewed and adjusted when necessary. The information about cardiac beat annotation was exported in XML format and integrated into the COMPAS software (COMPhrensive Analysis of the repolarization Segment software, University of Rochester Medical Center Rochester, N.Y.) for the analysis of repolarization morphology.
To ensure stability of repolarization and increase signal-to-noise ratio, we adopted the following strategy: the Holter recordings were divided in sections of 10 continuous sinus beats. Only the sections preceded by stable heart rate within the previous 5 minutes were selected for the analysis. Heart rate stability required having less than 300 ms changes between continuous RR values within the 5 minutes. […] The QT interval and T-amplitude measurements were based on median beats computed from each so-called “stable representative beats”.
Based on a technique ensuring an appropriate stability of the modeling of the relationship between repolarization measurements and the RR intervals disclosed in a publication by Couderc J P, Xiaojuan X, Zerba W, Moss A J, entitled, “Assessment of the Stability of the Individual-Based Correction of QT Interval for Heart Rate”, published in the Ann. Noninvasive. Electrocardiol. 2005 January; 10(1):25-34, and herein officially incorporated by reference, we investigated two electrocardiographic measurements: the QT interval and the amplitude of the T-wave and their relationship with RR intervals.
The QT interval and T amplitude were measured on the stable representative beats from lead II. The end of T-wave was identified based on the tangent method, the crossing point between the tangent and the isoelectric line identifying the end of the T-wave, although other methods of measuring the QT interval could be used in other embodiments. The amplitude of the T-wave was measured at the maximum value of the T-wave signal in absolute value. For negative T-waves, the sign of the amplitude was conserved. For biphasic T-waves, we measured the highest portion of the signal in absolute value. No manual adjustments of measurements were performed.

Consider `CC(C)NCC(O)c1ccc(NS(C)(=O)=O)cc1` (stereo not drawn) [sotalol], for which the RR (high dose sotalol (320 mg), n = 21, diurnal period) turned out to be 947 ± 70 ms. Where the note is “low dose sotalol (160 mg), n = 37, diurnal period”, this molecule showed an RR of 893 ± 63 ms. Also, for the setting “in vivo”, the “Dose dependence of QT/RR slope” value is “not associated with sotalol dose-dependent changes”; the “Dose dependence of T-wave amplitude/RR slope” value was “dose-dependent effect on the slope”; the “Dose-dependent effect on QT interval duration, RR bin analysis” value is listed as “this trend did not reach statistical significance”; the “Mean levels of T wave amplitude off vs on sotalol” value is recorded as “not significantly different”. Also, under “in vivo”, the “QT interval duration, RR bin analysis, vs healthy individuals” value was “significant QT interval prolongation”; the “QTc with increasing dose of sotalol” value is “progressively prolonged”; the “T-wave amplitude across RR bins” value is on record as “clear dose-dependent effect of the drug on T-wave amplitude exacerbated at low heart rate”.
